Test results from US20150307938A1, “METHOD TO IDENTIFY A NOVEL CLASS OF IMMUNOLOGIC ADJUVANTS” (Lancell, L.L.C., priority 2011, published 2015).

Tested on: Fluzone
Parameters: species or system mice
Conditions: mouse, in vivo

CCCCOC(=O)c1ccccc1C(=O)OCCCC [DBP, dibutylphthalate]
IgA Ab in bronchoalveolar lavage: highly significantly increased
IgA Ab in bronchoalveolar lavage, persistence: remained undiminished
Serum antibodies of all IgG isotypes: highly significantly increased
